Calls of active or inactive are those of the source. How the calls were made is not given here.
Biological target: Small ubiquitin-related modifier 2 (Homo sapiens) (UniProt P61956)
Assay: SUMO2 binding disruption by SUMO1 hits – biochemical, FRET, human SUMO2, uHTS hits, selectivity assay for SUMO1 interaction inhibitor project, dose response (AID 624384)
Settings: SUMO2 FRET protein-protein interaction selectivity assay

Small ubiquitin-related modifier 2 (Homo sapiens), sequence (P61956 whole entry, looked up): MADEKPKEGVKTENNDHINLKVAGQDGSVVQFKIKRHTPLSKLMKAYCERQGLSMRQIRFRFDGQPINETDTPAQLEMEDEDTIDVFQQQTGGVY

C[c-]1[c-](C)[c-](C)[c-](C)[c-]1C.[Fe].c1cc2nccc(N3CCCC3)[c-]2c1 (stereo unspecified)
IC50: > 66 µM (inactive)

Reference: PubChem BioAssay AID624384 (Sanford-Burnham Center for Chemical Genomics, 2012)
